Structures can show the parent of a compound that is named as a salt.
Assay: in vitro pharmaceutical release in simulated gastric fluid and simulated intestinal fluid
Assay type: physicochemical
Conditions: for cumulative release: from the capsule, simulated gastric fluid (pH=1.7) / simulated intestinal fluid (pH=7.4), time not stated; for release kinetics model fit: release from the fibres, in vitro
From the text: FIGS. 7A and 7B illustrate the use of a pharmaceutical delivery device in accordance with an embodiment of the present invention to release two pharmaceuticals at the same time, each with their own unique release profile, in which FIG. 7A is a pharmaceutical release profile of APAP and CM from the various capsule configurations in a simulated gastric fluid (pH=1.7) and a simulated intestinal fluid (pH=7.4), and FIG. 7B is a detailed pharmaceutical release profile for APAP and CM from the composite capsule in the first two hours in a simulated gastric fluid (pH=1.7); and
The capsule sample was immersed into a 100 ml beaker containing 50 mL PBS solution being stirred at 100 rpm. The whole separation process was finished in 169 s and the complete dissolution of PVP finished until 295 s. Also, regulation and controlled movement of each component pharmaceutical layer after separation was achieved by adding Fe3O4 nanoparticles and an external magnetic field. The separated capsule containing the printed outer PCL with embedded Fe3O4 nanoparticles and travel quickly from left to right under an applied external magnet field while the inner layer without any nanoparticles remained stationary (FIG. 5). This travel distance was covered within 3 s at a velocity of 6.7 mm/s. […] This allows for multifunctional uses of the capsule such as for targeted pharmaceutical release using an externally located magnet, and as a magnetic resonance tracer. […] The cumulative release of APAP was more than 90% while the cumulative release of CM was around 70%.

| cumulative release | release kinetics model fit | release rate comparison (first 2 hours in simulated gastric fluid (pH=1.7), composite capsule) | Structure (SMILES) |
| --- | --- | --- | --- |
| around 70% | mostly fit the Higuchi model | – | CN(C)CCC(c1ccc(Cl)cc1)c1ccccn1 (centres unmarked) [CM, chlorpheniramine maleate] |
| more than 90% | mostly fit the Higuchi model | faster than CM | CC(=O)Nc1ccc(O)cc1 [APAP, paracetamol] |

From patent US20220409531A1, “PHARMACEUTICAL DELIVERY DEVICE AND METHOD OF MANUFACTURE” (University of Ulster, priority 2019, published 2022)
